According to patent US7199121B2, “Protein tyrosine phosphatase inhibitor” (Institute of Molecular and Cell Biology, priority 2000, dated 2007):

Assays:
[1] = Solubility in solvents; format: physicochemical
[2] = Stability in solution (HPLC analysis); format: physicochemical; details: for amount reduced after incubation: aqueous solution, 52° C., 4 h; for stability in solutions: water, MeOH, DMSO
Description: The structures of 1 and 2 are similar to the structure of a known pyroglutamyl peptidase inhibitor pyrizinostatin. Pyrizinostatin has the same two-ring system (compound 3) but with a ketone side chain. Both 1 and 2 are optically active. It is possible that 1 and 2 are enantioselectively synthesized by the microorganism starting from 3 and 5. […] Upon storage, and during the isolation and purification process, decomposition predominates. […] The formation of 3 was evidenced by HPLC analysis.

[3] = test system: PTP; experiment: Bioassay for PTP inhibitory activity; format: biochemical; details: for PTP inhibitory activity after prolonged storage of solution: TFA salt solution after prolonged storage; for PTP inhibitory activity of fresh solution: TFA salt, amount of 3 below 1 mole %; for PTP inhibitory activity in bioassay: isolated material, 1 and 2 contaminated with about 6-10% of 3
Experimental: HTS for inhibitory activity towards PTPα was performed in 96 well plates (Nunclon). Dephosphorylation of the substrate (pNPP) was measured in 180 μL reactions/well in assay buffer containing 50 mM sodium acetate (pH 5.5), 0.5 mg/mL BSA and 0.5 mM dithiothreitol. The purified enzyme PTPα (0.3 μg/well) and extracts (5 μL in 50% methanol) were preincubated for 5–10 min at room temperature in a volume of 170 μl. Reactions were initiated by adding 10 μL of substrate in assay buffer to a final concentration of 2 mM. For each plate, 6 reference control wells containing PTPα were preincubated with 5 μL 50% methanol at the same time as the test samples. As a positive control for PTPα inhibition, 1 μM Na3VO4, a potent inhibitor of PTPs, was added to some wells. Blank wells contained 5 μL 50% methanol, 2 mM pNPP in assay buffer and no enzyme. For each set of experiments (from 2–5 plates), reference controls in a separate plate were read at different time points to check the linearity of the reaction. Reactions were stopped with 25 μL KH2PO4 after 45–60 mins incubation at room temperature. The plates were read immediately in a multilabel counter (Wallac 1420 Victor). The OD405 of the reference wells ranged between 0.7–1.2, which represents <10% conversion of the substrate and falls within the linear part of the reaction. Percentage inhibition was determined using the formula: % Inhibition=[{(OD ref−OD blank)−(OD test−OD blank)}/(OD ref−OD blank)]×100 Phosphatase Assay: […]

[4] = target: T1, λPP (Escherichia phage lambda, UniProt P03772); experiment: Phosphatase assay (pNPP dephosphorylation), λPP; details: for percentage activity of λPP relative to control: 1 μM compound, phosphatase 5.0 nM, pNPP, average of three enzyme preparations ± S.D.
T1 sequence (P03772 1-221): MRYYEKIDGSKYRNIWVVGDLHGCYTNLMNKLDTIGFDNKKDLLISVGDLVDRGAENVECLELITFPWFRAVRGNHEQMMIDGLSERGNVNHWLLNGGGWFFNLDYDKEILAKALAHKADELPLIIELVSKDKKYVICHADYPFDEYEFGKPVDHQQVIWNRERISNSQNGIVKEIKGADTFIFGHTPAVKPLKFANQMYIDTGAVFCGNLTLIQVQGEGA
Experimental: (§1) All other PTPs described in the text were purchased from New England Biolabs. Dephosphorylation of pNPP was measured in 450 μL reactions containing 50 mM sodium acetate (pH 5.5, or pH 7 for CIP), 0.5 mg/mL BSA, 0.5 μM dithiothreitol, and 2 mM pNPP. Reactions with IPP also contained 2 mM Mn^2+. […] All reactions were carried out at 30° C. and terminated during the linear portion of the reaction.
(§2) [nM] refers to the concentration of phosphatase assayed. The numbers indicate percentage activities relative to respective control reactions without addition of 3, 4, or Na3VO4. The numbers represent the average of the activities measured with three separate enzyme preparations, each of which was assayed in duplicate±S.D.

[5] = target: T2, CD45 (Homo sapiens, UniProt P08575); experiment: Phosphatase assay (pNPP dephosphorylation), CD45; details: 1 μM compound; phosphatase 1.0 nM; pNPP; average of three enzyme preparations ± S.D.
T2 sequence (P08575 599-1306 limits assumed): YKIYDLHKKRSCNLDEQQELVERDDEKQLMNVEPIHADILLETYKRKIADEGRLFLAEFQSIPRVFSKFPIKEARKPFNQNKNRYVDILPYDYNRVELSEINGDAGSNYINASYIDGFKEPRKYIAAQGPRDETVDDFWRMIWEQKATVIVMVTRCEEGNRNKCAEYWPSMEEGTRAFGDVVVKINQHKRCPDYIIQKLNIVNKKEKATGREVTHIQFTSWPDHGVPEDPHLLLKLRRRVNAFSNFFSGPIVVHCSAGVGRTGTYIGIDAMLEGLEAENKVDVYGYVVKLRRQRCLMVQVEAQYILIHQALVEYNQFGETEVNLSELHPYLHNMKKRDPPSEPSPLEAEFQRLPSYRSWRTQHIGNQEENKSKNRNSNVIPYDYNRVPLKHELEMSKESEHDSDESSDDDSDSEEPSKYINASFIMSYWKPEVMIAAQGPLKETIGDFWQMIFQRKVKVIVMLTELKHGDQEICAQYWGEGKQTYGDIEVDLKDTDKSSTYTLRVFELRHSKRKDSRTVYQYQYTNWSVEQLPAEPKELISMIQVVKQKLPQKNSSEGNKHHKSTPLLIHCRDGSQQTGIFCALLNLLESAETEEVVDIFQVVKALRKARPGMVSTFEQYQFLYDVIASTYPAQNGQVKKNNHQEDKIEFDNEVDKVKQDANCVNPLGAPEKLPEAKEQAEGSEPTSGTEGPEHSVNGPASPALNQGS
Experimental: as §1, §2

[6] = target: T3, TCPTP (Homo sapiens, UniProt P17706); experiment: Phosphatase assay (pNPP dephosphorylation), TCPTP; details: 1 μM compound; phosphatase 1.0 nM; pNPP; average of three enzyme preparations ± S.D.
T3 sequence (P17706 1-317 limits assumed): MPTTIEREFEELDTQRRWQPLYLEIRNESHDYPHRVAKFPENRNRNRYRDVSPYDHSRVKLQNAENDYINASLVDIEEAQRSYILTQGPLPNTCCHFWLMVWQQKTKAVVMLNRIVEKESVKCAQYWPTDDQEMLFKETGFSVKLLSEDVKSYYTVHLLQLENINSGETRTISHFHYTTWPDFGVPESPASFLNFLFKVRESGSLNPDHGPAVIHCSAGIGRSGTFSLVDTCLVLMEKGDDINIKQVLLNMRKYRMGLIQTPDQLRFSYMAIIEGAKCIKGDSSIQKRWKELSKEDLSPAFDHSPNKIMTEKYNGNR
Experimental: (§3) Dephosphorylation of pNPP was measured in 450 μL reactions containing 50 mM sodium acetate (pH 5.5, or pH 7 for CIP), 0.5 mg/mL BSA, 0.5 μM dithiothreitol, and 2 mM pNPP. Reactions with IPP also contained 2 mM Mn^2+. […] All reactions were carried out at 30° C. and terminated during the linear portion of the reaction.
as §2

[7] = target: T4, LAR-D1 (Homo sapiens, UniProt P10586); experiment: Phosphatase assay (pNPP dephosphorylation), LAR-D1; details: 1 μM compound; phosphatase 5.0 nM; pNPP; average of three enzyme preparations ± S.D.
T4 sequence (P10586 1352-1607 limits assumed): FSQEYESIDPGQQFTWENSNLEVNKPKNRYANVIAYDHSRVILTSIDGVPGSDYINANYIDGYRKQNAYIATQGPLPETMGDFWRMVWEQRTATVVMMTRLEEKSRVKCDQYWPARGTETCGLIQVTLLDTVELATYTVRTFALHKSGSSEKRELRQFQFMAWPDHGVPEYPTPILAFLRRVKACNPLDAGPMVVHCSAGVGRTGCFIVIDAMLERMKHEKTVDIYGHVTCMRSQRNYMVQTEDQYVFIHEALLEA
Experimental: as §3, §2

[8] = target: εD1D2 (Homo sapiens, UniProt P23469); experiment: Phosphatase assay (pNPP dephosphorylation), PTPε D1D2; details: 1 μM compound; phosphatase 1.0 nM; pNPP; average of three enzyme preparations ± S.D.
Chain of εD1D2 (P23469 70-700 limits assumed): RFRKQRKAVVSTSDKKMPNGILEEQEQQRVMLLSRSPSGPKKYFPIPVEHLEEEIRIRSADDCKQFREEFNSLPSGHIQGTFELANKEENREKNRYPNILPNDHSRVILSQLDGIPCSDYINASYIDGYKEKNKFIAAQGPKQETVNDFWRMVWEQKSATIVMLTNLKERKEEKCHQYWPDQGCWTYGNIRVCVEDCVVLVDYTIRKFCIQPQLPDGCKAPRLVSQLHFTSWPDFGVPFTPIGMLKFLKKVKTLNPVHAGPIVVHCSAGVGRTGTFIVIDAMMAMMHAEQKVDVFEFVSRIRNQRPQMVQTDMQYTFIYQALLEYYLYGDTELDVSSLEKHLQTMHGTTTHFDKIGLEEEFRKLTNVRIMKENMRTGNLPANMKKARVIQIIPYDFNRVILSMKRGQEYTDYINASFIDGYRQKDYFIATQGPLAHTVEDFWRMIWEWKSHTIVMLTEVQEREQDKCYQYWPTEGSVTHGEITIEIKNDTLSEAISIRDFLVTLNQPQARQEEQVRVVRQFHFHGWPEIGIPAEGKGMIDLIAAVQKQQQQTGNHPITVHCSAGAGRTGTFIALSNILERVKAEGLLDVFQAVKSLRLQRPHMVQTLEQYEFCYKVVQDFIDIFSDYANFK
Experimental: as §1, §2

[9] = target: αD1D2 (Homo sapiens, UniProt P18433); experiment: Phosphatase assay (pNPP dephosphorylation), PTPα D1D2; details: 1 μM compound; phosphatase 5.0 nM; pNPP; average of three enzyme preparations ± S.D.
Chain of αD1D2 (P18433 175-802): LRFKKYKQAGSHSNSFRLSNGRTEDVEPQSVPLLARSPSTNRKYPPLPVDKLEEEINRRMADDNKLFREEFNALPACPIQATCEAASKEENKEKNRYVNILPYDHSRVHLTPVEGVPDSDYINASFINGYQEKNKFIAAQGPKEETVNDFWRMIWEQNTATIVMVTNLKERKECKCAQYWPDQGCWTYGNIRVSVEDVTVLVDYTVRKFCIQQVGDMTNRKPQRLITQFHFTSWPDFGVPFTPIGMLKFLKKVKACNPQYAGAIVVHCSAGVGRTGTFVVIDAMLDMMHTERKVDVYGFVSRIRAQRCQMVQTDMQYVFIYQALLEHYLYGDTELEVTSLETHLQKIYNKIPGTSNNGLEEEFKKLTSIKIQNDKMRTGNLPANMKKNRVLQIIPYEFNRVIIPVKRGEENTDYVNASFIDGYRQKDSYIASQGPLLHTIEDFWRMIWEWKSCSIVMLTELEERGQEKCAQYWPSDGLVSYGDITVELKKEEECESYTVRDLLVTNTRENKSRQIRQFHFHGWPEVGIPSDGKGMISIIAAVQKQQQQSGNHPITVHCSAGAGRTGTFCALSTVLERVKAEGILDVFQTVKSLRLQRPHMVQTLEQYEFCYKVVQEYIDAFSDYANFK
Experimental: as §1, §2

[10] = test system: CIP; experiment: Phosphatase assay (pNPP dephosphorylation, pH 7), CIP; details: for percentage activity of CIP relative to control: 1 μM compound, phosphatase 0.5 nM, pNPP, pH 7, average of three enzyme preparations ± S.D.; for effect on pNPP phosphatase activity of CIP: neutral pH
Experimental: as §1, §2

SMILES	solubility in DMSO, methanol and water [1]	solubility in dichloromethane, chloroform and hexanes [1]	amount reduced after incubation [2] [%]	stability in solutions [2]	PTP inhibitory activity after prolonged storage of solution [3]	PTP inhibitory activity of fresh solution [3]	PTP inhibitory activity in bioassay [3]	effect on in vitro activity of the PTPs tested ([3]; 1 μM, receptor and non-receptor PTPs)	effect on λPP activity ([4]; 1 μM)	percentage activity of λPP relative to control [4] [%]	percentage activity of CD45 relative to control [5] [%]	percentage activity of TCPTP relative to control [6] [%]	percentage activity of LAR-D1 relative to control [7] [%]	percentage activity of εD1D2 relative to control [8] [%]	percentage activity of αD1D2 relative to control [9] [%]	percentage activity of CIP relative to control [10] [%]	effect on pNPP phosphatase activity of CIP [10]
CN1N=C2N(C)C(=O)N(C)C(=O)C2(C2NC(N)=NC2=O)NC1=O (single isomer, unassigned) [Compound 1, 4a-(2-amino-5-oxo-4,5-dihydro-3H-imidazol-4-yl)-2,4,4a,8-tetrahydro-2,6,8-trimethyl-pyrimido[5,4-e]-1,2,4-triazine-3,5,7(6H)-trione]	soluble	insoluble	62	unstable	became active	inactive	much weaker inhibitors										
CN1N=C2N(C)C(=O)N(C)C(=O)C2(C2NC(N)=NC2=O)NC1=O (single isomer, unassigned) [Compound 2, 4a-(2-amino-5-oxo-4,5-dihydro-3H-imidazol-4-yl)-2,4,4a,8-tetrahydro-2,6,8-trimethyl-pyrimido[5,4-e]-1,2,4-triazine-3,5,7(6H)-trione]	soluble	insoluble	85	unstable	became active	inactive	much weaker inhibitors										
Cn1nc2c(nc1=O)n(C)c(=O)n2C [Compound 4, 2,5,7-trimethyl-2,7-dihydro-5H-imidazo[4,5-e]-1,2,4-triazine-3,6-dione]								negligible effects	unaffected	100 ± 6.0	96 ± 1.0	99 ± 2.0	97 ± 1.5	99 ± 1.0	98 ± 0.5	99 ± 4.0	neither compound had any detectable effect
[Na+].[Na+].[Na+].[O]=[V]([O-])([O-])[O-] [Na3VO4, sodium orthovanadate, reference compound]										49 ± 3.0	14 ± 0.5	31 ± 5.0	26 ± 1.0	18 ± 2.0	24 ± 1.5	98 ± 3.0	lack of effect
